Test results from ChEMBL document CHEMBL4765344, “Expanding the anticancer potential of 1,2,3-triazoles via simultaneously targeting Cyclooxygenase-2, 15-lipoxygenase and tumor-associated carbonic anhydrases” (Eur J Med Chem, 2020).
Active and inactive are the calls of the source. No cut-off for these calls is given here.

Experiments:
[1] = Inhibition of soya bean 15-LOX; design: species or system Glycine max
[2] = target: T1, Prostaglandin G/H synthase 1 (Ovis aries, UniProt P05979); assay: Inhibition of ovine COX1 by colorimetric analysis
T1 sequence (P05979 whole entry): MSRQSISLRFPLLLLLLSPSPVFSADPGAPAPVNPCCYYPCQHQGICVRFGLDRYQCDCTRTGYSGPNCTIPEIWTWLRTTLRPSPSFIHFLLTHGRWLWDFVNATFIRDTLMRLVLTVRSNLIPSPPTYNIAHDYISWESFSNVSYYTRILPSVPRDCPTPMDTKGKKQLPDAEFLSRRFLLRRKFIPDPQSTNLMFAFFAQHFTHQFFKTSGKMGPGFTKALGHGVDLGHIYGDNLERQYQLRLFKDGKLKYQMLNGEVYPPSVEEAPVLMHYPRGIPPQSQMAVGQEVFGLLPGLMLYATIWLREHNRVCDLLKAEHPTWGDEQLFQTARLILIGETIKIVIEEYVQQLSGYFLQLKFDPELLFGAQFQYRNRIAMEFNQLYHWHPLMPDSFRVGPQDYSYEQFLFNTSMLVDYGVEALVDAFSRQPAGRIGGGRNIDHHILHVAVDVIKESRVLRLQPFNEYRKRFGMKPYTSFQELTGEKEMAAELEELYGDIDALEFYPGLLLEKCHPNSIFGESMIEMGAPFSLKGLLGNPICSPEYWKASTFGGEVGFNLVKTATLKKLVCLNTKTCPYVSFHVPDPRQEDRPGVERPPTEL

A549 [3] = assay: Antiproliferative activity against human A549 cells assessed as inhibition of cell growth at 100 microM measured after 72 hrs by SRB assay; assay type: functional
HepG2 [4] = assay: Antiproliferative activity against human HepG2 cells assessed as inhibition of cell growth at 100 microM measured after 72 hrs by SRB assay; assay type: functional
Carbonic anhydrase 12 = Carbonic anhydrase 12 (Homo sapiens, UniProt O43570); assay: Inhibition of human CA12 by stopped-flow carbon dioxide hydration assay
Carbonic anhydrase 12, sequence (O43570 whole entry): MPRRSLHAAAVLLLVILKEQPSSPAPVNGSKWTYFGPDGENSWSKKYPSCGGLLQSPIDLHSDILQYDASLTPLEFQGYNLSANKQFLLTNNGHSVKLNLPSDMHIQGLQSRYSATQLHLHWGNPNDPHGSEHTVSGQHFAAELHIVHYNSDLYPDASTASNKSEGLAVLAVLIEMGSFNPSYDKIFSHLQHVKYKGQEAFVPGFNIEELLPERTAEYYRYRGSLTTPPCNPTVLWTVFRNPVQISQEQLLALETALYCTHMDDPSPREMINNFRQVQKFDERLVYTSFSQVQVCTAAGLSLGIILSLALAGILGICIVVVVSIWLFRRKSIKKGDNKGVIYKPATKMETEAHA

WI-38 = assay: Cytotoxicity against human WI-38 cells assessed as reduction in cell viability after 72 hrs by SRB assay; assay type: cell-based; settings: WI-38, 72 h
Carbonic anhydrase 1 = Carbonic anhydrase 1 (Homo sapiens, UniProt P00915); assay: Inhibition of human CA1 by stopped-flow carbon dioxide hydration assay
Carbonic anhydrase 1, sequence (P00915 whole entry): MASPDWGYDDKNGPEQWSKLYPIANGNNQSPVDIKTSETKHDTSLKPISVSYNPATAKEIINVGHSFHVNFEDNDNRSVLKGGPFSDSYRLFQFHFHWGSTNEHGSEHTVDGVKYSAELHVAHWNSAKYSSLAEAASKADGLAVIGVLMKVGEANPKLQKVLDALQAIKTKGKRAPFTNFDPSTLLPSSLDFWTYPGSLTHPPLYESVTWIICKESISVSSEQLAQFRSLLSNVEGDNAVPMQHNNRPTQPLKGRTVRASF

Carbonic anhydrase 2 = Carbonic anhydrase 2 (Homo sapiens, UniProt P00918); assay: Inhibition of human CA2 by stopped-flow carbon dioxide hydration assay
Carbonic anhydrase 9 = Carbonic anhydrase 9 (Homo sapiens, UniProt Q16790); assay: Inhibition of human CA9 by stopped-flow carbon dioxide hydration assay
MCF7 [5] = assay: Antiproliferative activity against human MCF-7 cells assessed as inhibition of cell growth at 100 microM measured after 72 hrs by SRB assay; assay type: functional
A549 [6] = assay: Antiproliferative activity against human A549 cells assessed as cell growth inhibition measured after 72 hrs by SRB assay; assay type: functional, cell-based; settings: A549, 72 h
HepG2 [7] = assay: Antiproliferative activity against human HepG2 cells assessed as cell growth inhibition measured after 72 hrs by SRB assay; assay type: functional, cell-based; settings: HepG2, 72 h
MCF7 [8] = assay: Antiproliferative activity against human MCF-7 cells assessed as cell growth inhibition measured after 72 hrs by SRB assay; assay type: functional, cell-based; settings: MCF7, 72 h
THP-1 = assay: Cytotoxicity against PMA/LPS-challenged human THP1 cells assessed as reduction in cell viability incubated for 24 hrs by MTS assay; assay type: functional, cell-based; settings: THP-1, 24 h
HT-29 = assay: Cytotoxicity against human HT-29 cells assessed as reduction in cell viability incubated for 24 hrs by MTS assay; assay type: functional, cell-based; settings: HT-29, 24 h
A549 [9] = assay: Induction of apoptosis in human A549 cells assessed as fold change in Bax expression at IC50 by ELISA relative to control; assay type: functional
A549 [10] = assay: Induction of apoptosis in human A549 cells assessed as caspase-9 expression at IC50 by ELISA (reference value: […] +/- […] ng/ml); assay type: functional
A549 [11] = assay: Induction of cell cycle arrest in human A549 cells assessed as accumulation at S phase at IC50 measured after 24 hrs by propidium iodide/RNase staining based flow cytometry (reference value: 31.88%); assay type: functional
A549 [12] = assay: Induction of cell cycle arrest in human A549 cells assessed as accumulation at pre-G1 phase at IC50 measured after 24 hrs by propidium iodide/RNase staining based flow cytometry (reference value: 1.93%); assay type: functional
A549 [13] = assay: Induction of apoptosis in human A549 cells assessed as Bax expression at IC50 by ELISA (reference value: 42.16 +/-6.2 pg/ml); assay type: functional
A549 [14] = assay: Induction of cell cycle arrest in human A549 cells assessed as accumulation at G0/G1 phase at IC50 measured after 24 hrs by propidium iodide/RNase staining based flow cytometry (reference value: 58.26%); assay type: functional
A549 [15] = assay: Induction of apoptosis in human A549 cells assessed as late apoptotic cells at IC50 measured after 24 hrs by annexin V-FITC staining based flow cytometry (reference value: […]); assay type: functional
A549 [16] = assay: Induction of apoptosis in human A549 cells assessed as fold change in caspase-9 expression at IC50 by ELISA relative to control; assay type: functional
A549 [17] = assay: Induction of apoptosis in human A549 cells assessed as necrotic cells at IC50 measured after 24 hrs by annexin V-FITC staining based flow cytometry (reference value: 1.01%); assay type: functional
A549 [18] = assay: Induction of cell cycle arrest in human A549 cells assessed as accumulation at G2/M phase at IC50 measured after 24 hrs by propidium iodide/RNase staining based flow cytometry (reference value: 9.86%); assay type: functional
A549 [19] = assay: Induction of apoptosis in human A549 cells assessed as total apoptotic cells at IC50 measured after 24 hrs by Annexin V-FITC/propidium iodide staining based flow cytometry (reference value: 0.92%); assay type: functional
A549 [20] = assay: Induction of apoptosis in human A549 cells assessed as fold change in Bcl2 expression at IC50 by ELISA relative to control; assay type: functional
A549 [21] = assay: Induction of apoptosis in human A549 cells assessed as early apoptotic cells at IC50 measured after 24 hrs by annexin V-FITC staining based flow cytometry (reference value: 0.63%); assay type: functional
A549 [22] = assay: Induction of apoptosis in human A549 cells assessed as Bcl2 expression at IC50 by ELISA (reference value: 9.04 +/-0.1 ng/ml); assay type: functional

IC50 [1]	IC50 [2]	Ki (Carbonic anhydrase 12)	Ki (Carbonic anhydrase 1)	Ki (Carbonic anhydrase 2)	Ki (Carbonic anhydrase 9)	Structure (SMILES)	inhibition at 100 µM (HepG2 [4])	IC50 (WI-38)	inhibition at 100 µM (MCF7 [5])	inhibition at 100 µM (A549 [3])	other results
3.65 µM	7.9 µM	–	–	–	–	CC(=O)c1nnn(-c2ccc(Cl)cc2)c1C	–	–	–	–	–
2.42 µM	9.6 µM	> 100 µM	> 100 µM	> 100 µM	> 100 µM	C/C(=N\NC(N)=S)c1nnn(-c2ccc(F)cc2)c1C	19.8%	406 µM	6.52%	–	inhibition (A549 [3]): inactive
1.51 µM	13 µM	0.0153 µM	0.0835 µM	–	7.27 µM	C/C(=N\NC(N)=S)c1nnn(-c2ccc(S(N)(=O)=O)cc2)c1C	–	378 µM	36.1%	3.88%	inhibition (HepG2 [4]): inactive
4.72 µM	5.8 µM	> 100 µM	51 µM	–	> 100 µM	CC(=O)c1nnn(-c2ccc(S(=O)(=O)Nc3nccs3)cc2)c1C	–	–	–	–	–
1.65 µM	11.6 µM	> 100 µM	> 100 µM	–	> 100 µM	C/C(=N\NC(N)=S)c1nnn(-c2ccc(C(=O)O)cc2)c1C	–	480 µM	46.6%	–	inhibition (A549 [3]): inactive; inhibition (HepG2 [4]): inactive
1.83 µM	11.9 µM	–	–	–	–	C/C(=N\Nc1nc(-c2ccc(Cl)cc2)cs1)c1nnn(-c2ccc(F)cc2)c1C	20.7%	414 µM	33.5%	11.9%	–
1.76 µM	10.9 µM	> 100 µM	0.551 µM	–	> 100 µM	C/C(=N\Nc1nc(-c2ccc(Cl)cc2)cs1)c1nnn(-c2ccc(C(=O)O)cc2)c1C	1.41%	461 µM	40.4%	67%	IC50 (A549 [6]): 73.1 µM
–	–	–	–	–	–	Cc1ccc(-c2cc(C(F)(F)F)nn2-c2ccc(S(N)(=O)=O)cc2)cc1 [CELECOXIB]	77.9%	433 µM	89.9%	86.2%	IC50 (A549 [6]): 17.5 µM; IC50 (HepG2 [7]): 0.36 µM; IC50 (MCF7 [8]): 2.56 µM
–	–	–	–	–	–	O=C(O)Cc1ccccc1Nc1c(Cl)cccc1Cl [DICLOFENAC SODIUM]	–	–	–	–	IC50 (THP-1): 201 µM; IC50 (HT-29): 137 µM
6.52 µM	7.9 µM	> 100 µM	46.3 µM	6.86 µM	> 100 µM	C/C(=N\NC(N)=O)c1nnn(-c2ccc(S(=O)(=O)Nc3nccs3)cc2)c1C	–	–	–	–	–
4.72 µM	8.4 µM	–	–	–	–	C/C(=N\NC(N)=O)c1nnn(-c2ccc(F)cc2)c1C	–	–	–	–	–
1.69 µM	10.3 µM	> 100 µM	> 100 µM	–	> 100 µM	C/C(=N\NC(N)=S)c1nnn(-c2ccc(S(=O)(=O)Nc3nccs3)cc2)c1C	22.1%	458 µM	20.7%	11.3%	–
5.33 µM	7.9 µM	–	–	–	–	C/C(=N\NC(N)=S)c1nnn(-c2ccc(Cl)cc2)c1C	–	–	–	–	–
6.84 µM	5.6 µM	–	–	–	–	C/C(=N\NC(N)=O)c1nnn(-c2ccc(Cl)cc2)c1C	–	–	–	–	–
4.74 µM	5.9 µM	0.0198 µM	0.213 µM	0.0164 µM	4.22 µM	C/C(=N\NC(N)=O)c1nnn(-c2ccc(S(N)(=O)=O)cc2)c1C	–	365 µM	5.8%	18.2%	inhibition (HepG2 [4]): inactive
1.19 µM	14.2 µM	> 100 µM	> 100 µM	> 100 µM	> 100 µM	C/C(=N\Nc1nc(-c2ccc(Cl)cc2)cs1)c1nnn(-c2ccc(S(=O)(=O)Nc3nccs3)cc2)c1C	56%	468 µM	39.9%	51.1%	IC50 (A549 [6]): 99.3 µM; IC50 (HepG2 [7]): 89.5 µM
1.98 µM	10.9 µM	> 100 µM	> 100 µM	> 100 µM	> 100 µM	Cc1c(-c2nn(-c3ccccc3)cc2/C=N/O)nnn1-c1ccc(F)cc1	89%	393 µM	98.2%	92.4%	IC50 (A549 [6]): 27 µM; IC50 (HepG2 [7]): 31.1 µM; IC50 (MCF7 [8]): 5.32 µM
4.51 µM	6.9 µM	–	–	–	–	C/C(=N\NC(N)=O)c1nnn(-c2ccc(C(=O)O)cc2)c1C	–	–	–	–	–
1.34 µM	12.4 µM	0.0134 µM	0.252 µM	0.0141 µM	7.89 µM	C/C(=N\Nc1nc(-c2ccc(Cl)cc2)cs1)c1nnn(-c2ccc(S(N)(=O)=O)cc2)c1C	59%	388 µM	37.2%	68.1%	fold change (FC) (A549 [9]): 7.82; Activity (A549 [10]): 12.69 ng/mL; IC50 (A549 [6]): 28.5 µM; Activity (A549 [11]): 23.54%; IC50 (HepG2 [7]): 72.4 µM; Activity (A549 [12]): 31.22%; Activity (A549 [13]): 329.7 pg/mL; Activity (A549 [14]): 31.61%; Activity (A549 [15]): 19.59%; fold change (FC) (A549 [16]): 10.56; Activity (A549 [17]): 2.48%; Activity (A549 [18]): 44.85%; IC50 (HT-29): 87.4 µM; Activity (A549 [19]): 28.74%; fold change (FC) (A549 [20]): 0.51; Activity (A549 [21]): 9.15%; Activity (A549 [22]): 4.95 ng/mL
3.65 µM	7.6 µM	0.0826 µM	0.073 µM	0.0079 µM	9.12 µM	CC(=O)c1nnn(-c2ccc(S(N)(=O)=O)cc2)c1C	3.61%	391 µM	17.7%	–	inhibition (A549 [3]): inactive
1.47 µM	12.9 µM	> 100 µM	> 100 µM	> 100 µM	> 100 µM	Cc1c(-c2nn(-c3ccccc3)cc2/C=N/O)nnn1-c1ccc(Cl)cc1	79%	402 µM	97.8%	69.7%	IC50 (A549 [6]): 55.7 µM; IC50 (HepG2 [7]): 26.5 µM; IC50 (MCF7 [8]): 22 µM
1.91 µM	13.9 µM	> 100 µM	18.3 µM	7.71 µM	> 100 µM	Cc1c(-c2nn(-c3ccccc3)cc2/C=N/O)nnn1-c1ccc(S(N)(=O)=O)cc1	12.5%	450 µM	43.5%	–	inhibition (A549 [3]): inactive
4.75 µM	7.3 µM	–	–	–	–	CC(=O)c1nnn(-c2ccc(F)cc2)c1C	–	–	–	–	–
5.14 µM	6.4 µM	–	–	–	–	CC(=O)c1nnn(-c2ccc(C(=O)O)cc2)c1C	–	–	–	–	–

Structure (SMILES)	IC50 [1]	IC50 [2]	Ki (Carbonic anhydrase 12)	Ki (Carbonic anhydrase 1)	Ki (Carbonic anhydrase 2)	Ki (Carbonic anhydrase 9)	inhibition at 100 µM (HepG2 [4])	IC50 (WI-38)	inhibition at 100 µM (MCF7 [5])	inhibition at 100 µM (A549 [3])	other results
O=c1c(O)c(-c2ccc(O)c(O)c2)oc2cc(O)cc(O)c12 [QUERCETIN]	3.34 µM	–	–	–	–	–	–	–	–	–	–
